Consider three compounds from paper PMC11162475, “Rule-based omics mining reveals antimicrobial macrocyclic peptides against drug-resistant clinical isolates” (Nature Communications, 2024).

Common to all, as to type: cell-based
Assay [1] has as its system Micrococcus luteus DSM1790. Description: Kirby-Bauer assay, zone of inhibition (agar well). To be noted: M. luteus DSM1790; 10 μL DMSO stock (3.2 or 1.6 mg/mL) in well of soft LB agar, 30 °C, 20 h. The protocol:
The stock solution of massatide A (1) and B (1a) 3.2 mg/mL were prepared in DMSO. 40 μL overnight culture of Micrococcus luteus DSM1790 was added to 20 mL soft Luria-Bertani agar (1% agar), and then poured into a plate. 10 μL tip was used to make two wells on the plate. 10 μL massatide A (1) or B (1a) solution was added in one of the wells, while in the other well, 10 μL DMSO was added as a negative control. The plates were incubated at 30 °C for 20 h to observe the zone of inhibition. Staphylococcus aureus ATCC25923 was also used to observe the inhibition zone using a similar method. The only difference is incubating at 37 °C. Stock solutions of sistertide A1, kebanetide A1 and A2 were 3.2 mg/mL, 1.6 mg/mL and 1.6 mg/mL, respectively. The method to observe the activity of these compounds individually was the same as that of massatide.

In assay [2] the test system is Enterococcus faecium MCC2763. Put plainly: microbe, parasite or virus in culture. On the procedure: (§1) For MIC determination, Staphylococcus aureus ATCC25923, Bacillus subtilis 168, Micrococcus luteus DSM1790, Enterococcus faecalis OG1RF, Enterococcus faecium MCC2763, Escherichia coli DH5α and Pseudomonas aeruginosa PAO1 were used as indicator strains. Nisin and vancomycin were used as positive controls. A dilution series of massatide A, massatide B, vancomycin (16, 8, 4, 2, 1, 0.5, 0.25, 0.125, 0.0625, 0.0313 μg/mL) and sistertide A1, kebanetide A1, kebanetide A2, nisin (64, 32, 16, 8, 4, 2, 1, 0.5, 0.25, 0.125 μg/mL) were prepared in 96-well plate from 1–10th column. The indicator strains were added to the compound-containing well. The indicator strain culture with no antibiotics was prepared in the 11th column. The 12th column was filled with 200 μL empty MHB medium. The 96-well plate was incubated at 37 °C for 20 h (30 °C for M. luteus and B. subtilis). The OD600 was detected on MULTISKAN Sky (Thermo Scientific) and MIC values were determined. The MIC values of clinical isolates were determined by Sichuan Primed Shines Bio-tech Co., Ltd. (China) following similar protocol. Levofloxacin was used as a positive control.

Another assay has as its system Bacillus subtilis 168. Put plainly: microbe, parasite or virus in culture. On the procedure: as §1
Assay [3] relates to Enterococcus faecalis OG1RF. Description: microbe, parasite or virus in culture. The conditions noted are these: 20 h. The protocol: as §1
Assay [4] has as its system Staphylococcus aureus ATCC25923. Put plainly: microbe, parasite or virus in culture. On the procedure:
as §1

Assay [5] deals with Micrococcus luteus DSM1790. Put plainly: microbe, parasite or virus in culture. The protocol: as §1
A further assay relates to Escherichia coli DH5α. The conditions noted are these: 20 h. The protocol:
as §1

The subject of assay [6] is Pseudomonas aeruginosa PAO1. On the procedure:
as §1

In brackets after ≈: the same amount, converted by molar mass. Read-outs that look alike come from different tables or passages of the source.

With `C=C1NC(=O)C(NC(=O)/C(=C/C)NC(=O)[C@H](CCCNC(=N)N)NC(=O)[C@@H](C)NC(=O)[C@@H](NC(=O)[C@H](C)NC(=O)[C@@H](NC(=O)[C@@H](C)NC(=O)[C@H](C)NC(=O)[C@@H]2CSC(C)C(N(C)C)C(=O)N/C(=C\C)C(=O)N[C@@H](Cc3ccc(O)cc3)C(=O)N[C@@H]([C@@H](C)CC)C(=O)N2)C(C)C)[C@@H](C)CC)CSC[C@@H](C(=O)N[C@H](C)C(=O)N[C@@H](C)C(=O)N[C@@H](C)C(=O)N[C@@H](C)C(=O)N[C@H](C)C(=O)N[C@@H](C)C(=O)N[C@H](C(=O)N[C@H](C)C(=O)NCC(=O)N[C@@H](C)C(=O)NC2C(=O)N[C@@H](Cc3ccc(O)cc3)C(=O)N[C@@H](CCC(=O)O)C(=O)N[C@@H](Cc3c[nH]c4ccccc34)C(=O)N[C@@H]([C@@H](C)O)C(=O)N/C=C\SC2C)[C@@H](C)CC)NC(=O)[C@H](CCCCN)NC(=O)[C@H](C(C)C)NC1=O` (stereo partly shown) [Sistertide A1 (2), sistertide A1], the “inhibitory activity (zone of inhibition)” value in assay [1] is reported as “did not display significant inhibitory activity”. Also, the MIC in assay [2] (MCC2763, 20 h) is over 64 µg/mL; against Bacillus subtilis 168 (168, 20 h), over 64 µg/mL; in assay [3] (OG1RF), over 64 µg/mL; in assay [4] (ATCC25923, 20 h), over 64 µg/mL; in assay [5] (DSM1790, 20 h), over 64 µg/mL; in the assay on Escherichia coli DH5α (DH5α), over 64 µg/mL. The compound also registered an MIC in assay [6] (PAO1, 20 h) of over 64 µg/mL.

For kebanetide A1 [Kebanetide A1 (4)], the “inhibitory activity (zone of inhibition)” value in assay [1] is recorded as “exhibited growth inhibition”. The MIC in assay [2] (Enterococcus faecium MCC2763, dilution series in 96-well plate, MHB, 37 °C, 20 h, OD600) is 32 µg/mL; against Bacillus subtilis 168 (Bacillus subtilis 168, dilution series in 96-well plate, MHB, 30 °C, 20 h, OD600), 8 µg/mL; in assay [3] (Enterococcus faecalis OG1RF, dilution series in 96-well plate, MHB, 37 °C, OD600) it was 16 µg/mL; in assay [4] (Staphylococcus aureus ATCC25923, dilution series in 96-well plate, MHB, 37 °C, 20 h, OD600), 64 µg/mL; in assay [5] (Micrococcus luteus DSM1790, dilution series in 96-well plate, MHB, 30 °C, 20 h, OD600) it was 8 µg/mL; in the assay on Escherichia coli DH5α (Escherichia coli DH5α, dilution series in 96-well plate, MHB, 37 °C, OD600) it was over 64 µg/mL. The same compound gave an MIC in assay [6] (Pseudomonas aeruginosa PAO1, dilution series in 96-well plate, MHB, 37 °C, 20 h, OD600) of over 64 µg/mL.

Turning to `C=C1NC(=O)C(N(C)C)C(C)SC[C@@H](C(=O)N[C@H](C(=O)N[C@@H](C)C(=O)N[C@H](C)C(=O)N[C@@H](C)C(=O)N/C(=C\C)C(=O)N[C@@H](C)C(=O)N[C@H](C)C(=O)N[C@@H](Cc2ccccc2)C(=O)N[C@H](C(=O)N[C@@H](C)C(=O)N[C@H](C)C(=O)N[C@@H](CCC(N)=O)C(=O)N[C@@H](Cc2ccccc2)C(=O)N[C@H](C)C(=O)N[C@@H](C)C(=O)N[C@@H](CCCCN)C(=O)NC2C(=O)N[C@@H](C(C)C)C(=O)N[C@@H](C)C(=O)NCC(=O)NCC(=O)N/C=C\SC2C)C(C)C)[C@@H](C)CC)NC(=O)[C@H](C)NC(=O)[C@@H]2CCCN2C1=O` (stereo partly shown) [kebanetide A2 (5), kebanetide A2], in assay [1], the “inhibitory activity (zone of inhibition)” value was “exhibited growth inhibition”. The MIC in assay [2] (MCC2763, 20 h) was 32 µg/mL (≈ 13.4 µM); in the assay on Bacillus subtilis 168 (168, 20 h) it was 32 to 64 µg/mL; in assay [3] (OG1RF), 16 µg/mL (≈ 6.72 µM); in assay [4] (ATCC25923, 20 h), over 64 µg/mL; in assay [5] (DSM1790, 20 h) it was 32 µg/mL (≈ 13.4 µM).
